In patent US20170334899A1, “AMINO-SUBSTITUTED ISOTHIAZOLES” (Bayer Pharma Aktiengesellschaft, priority 2014, published 2017):
Like-named read-outs stand apart in the source and are kept apart here.

Experiments:
[1] = system: human cervical tumor cell line HeLa (ATCC CCL-2); assay: SAC-Formation - Paclitaxel-Induced Assay; assay type: cell-based; details: HeLa cells, paclitaxel 0.05 μM, 24 h, test range 0.005 μM-20 μM, read-out: IC50 [mol/l] SAC-Formation - Paclitaxel-Induced Assay
Outline: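 HeLa cells incubated overnight at 37° C, then given paclitaxel (0.05 μM final) plus test compound (0.005–20 μM, 0.5% DMSO) together for 24 h at 37° C. Fixed cells stained for phospho-histone H3 Ser10 (mitotic cells) and Hoechst 33342 (cell count); imaging-derived mitotic index fitted by four-parameter Hill equation.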

CDK2/CycE = target: T1, CDK2/CycE (Homo sapiens, UniProt P24941); assay: CDK2/CycE kinase assay (TR-FRET); assay type: biochemical; details: avg, read-out: CDK2 avg (IC50 [mol/l])
T1 construct: GST; purchased ProQinase GmbH (Freiburg, Germany); host or cells: insect cells (Sf9)
Outline: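 GST-tagged human CDK2 and CycE from Sf9 cells, preincubated 15 min with compound, then 25 min at 22° C. with 10 μM ATP and 0.75 μM biotinylated Rb-derived peptide (final). Phospho-substrate read by TR-FRET (anti-pRB pSer807/pSer811, Eu anti-mouse IgG, streptavidin-XL665), 665/620 nm ratio, normalised to no-inhibitor and no-enzyme controls.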

IC50 [1]	IC50 ([1]; Homo sapiens, HeLa)	IC50 (CDK2/CycE)	Compound
27 nM	30 nM	> 20000 nM	Cc1nsc(Nc2cnc(C(F)(F)F)cn2)c1C(=O)Nc1ccc(OCC2CCN(CC(F)(F)F)CC2(F)F)nc1 (centres unmarked) [Example 392, N-(6-{[3,3-difluoro-1-(2,2,2-trifluoroethyl)piperidin-4-yl]methoxy}pyridin-3-yl)-3-methyl-5-{[5-(trifluoromethyl)pyrazin-2-yl]amino}-1,2-thiazole-4-carboxamide]
–	110 nM	> 20000 nM	Cc1nsc(Nc2cnc(C(F)(F)F)cn2)c1C(=O)Nc1ccc(F)c(OC[C@@H]2CCCN(CC(F)(F)F)C2)c1 [Example 342, N-(4-fluoro-3-{[(3R)-1-(2,2,2-trifluoroethyl)piperidin-3-yl]methoxy}phenyl)-3-methyl-5-{[5-(trifluoromethyl)pyrazin-2-yl]amino}-1,2-thiazole-4-carboxamide]
–	440 nM	> 20000 nM	CCN1CCC(COc2ccc(NC(=O)c3c(C)nsc3Nc3cnc(C(F)(F)F)cn3)cn2)C(F)(F)C1 (centres unmarked) [Example 393, N-{6-[(1-ethyl-3,3-difluoropiperidin-4-yl)methoxy]pyridin-3-yl}-3-methyl-5-{[5-(trifluoromethyl)pyrazin-2-yl]amino}-1,2-thiazole-4-carboxamide]
–	44 nM	> 20000 nM	Cc1nsc(Nc2cnc(C(F)(F)F)cn2)c1C(=O)Nc1ccc(OC[C@@H]2CCCN(CC(F)(F)F)C2)nc1 [Example 376, 3-methyl-N-(6-{[(3R)-1-(2,2,2-trifluoroethyl)piperidin-3-yl]methoxy}pyridin-3-yl)-5-{[5-(trifluoromethyl)pyrazin-2-yl]amino}-1,2-thiazole-4-carboxamide]
–	40 nM	> 20000 nM	Cc1nsc(Nc2cnc(C(F)(F)F)cn2)c1C(=O)Nc1ccc(O[C@H]2CCN(CCC(F)(F)F)C[C@@H]2F)nc1 [Example 364, N-(6-{[(3S,4S)-3-fluoro-1-(3,3,3-trifluoropropyl)piperidin-4-yl]oxy}pyridin-3-yl)-3-methyl-5-{[5-(trifluoromethyl)pyrazin-2-yl]amino}-1,2-thiazole-4-carboxamide]
–	56 nM	> 20000 nM	Cc1nsc(Nc2cnc(C(F)(F)F)cn2)c1C(=O)Nc1ccc(F)c(OC[C@H]2CCN(CC(F)(F)F)C2)c1 [Example 398, N-(4-fluoro-3-{[(3S)-1-(2,2,2-trifluoroethyl)pyrrolidin-3-yl]methoxy}phenyl)-3-methyl-5-{[5-(trifluoromethyl)pyrazin-2-yl]amino}-1,2-thiazole-4-carboxamide]
–	520 nM	≥ 20000 nM	Cc1nsc(Nc2cnc(C(F)(F)F)cn2)c1C(=O)Nc1ccc(OCCN(C)CCF)nc1 [Example 348, N-(6-{2-[(2-fluoroethyl)(methyl)amino]ethoxy}pyridin-3-yl)-3-methyl-5-{[5-(trifluoromethyl)pyrazin-2-yl]amino}-1,2-thiazole-4-carboxamide]
–	57 nM	≥ 20000 nM	Cc1nsc(Nc2cnc(C(F)(F)F)cn2)c1C(=O)Nc1ccc(OCC2CCCN(CC(F)F)C2)nc1 (centres unmarked) [Example 327, N-(6-{[1-(2,2-difluoroethyl)piperidin-3-yl]methoxy}pyridin-3-yl)-3-methyl-5-{[5-(trifluoromethyl)pyrazin-2-yl]amino}-1,2-thiazole-4-carboxamide]
–	990 nM	≥ 20000 nM	Cc1nsc(Nc2cc(C#N)ccn2)c1C(=O)Nc1ccc(OC2CCCN(C(=O)OC(C)(C)C)C2)nc1 (centres unmarked) [Example 34, tert-Butyl 3({5-[({5-[(4-cyanopyridin-2-yl)amino]-3-methyl-1,2-thiazol-4-yl}-carbonyl)amino]pyridin-2-yl}oxy)piperidine-1-carboxylate]
–	12 nM	> 20000 nM	Cc1nsc(Nc2cnc(C(F)(F)F)cn2)c1C(=O)Nc1ccc(F)c(OC[C@@H]2CCN(CC(F)(F)F)C2)c1 [Example 339, N-(4-fluoro-3-{[(3R)-1-(2,2,2-trifluoroethyl)pyrrolidin-3-yl]methoxy}phenyl)-3-methyl-5-{[5-(trifluoromethyl)pyrazin-2-yl]amino}-1,2-thiazole-4-carboxamide]
–	18 nM	> 20000 nM	CCCCN1CCC(COc2ccc(NC(=O)c3c(C)nsc3Nc3cnc(C(F)(F)F)cn3)cn2)C(F)(F)C1 (centres unmarked) [Example 396, N-{6-[(1-butyl-3,3-difluoropiperidin-4-yl)methoxy]pyridin-3-yl}-3-methyl-5-{[5-(trifluoromethyl)pyrazin-2-yl]amino}-1,2-thiazole-4-carboxamide]
–	800 nM	≥ 20000 nM	Cc1nsc(Nc2cnc(C(F)(F)F)cn2)c1C(=O)Nc1ccc(OCCNCCC(F)(F)F)nc1 [Example 323, 3-methyl-5-{[5-(trifluoromethyl)pyrazin-2-yl]amino}-N-(6-{2-[(3,3,3-trifluoropropyl)amino]ethoxy}pyridin-3-yl)-1,2-thiazole-4-carboxamide]
–	180 nM	≥ 20000 nM	Cc1nsc(Nc2cnc(C(F)(F)F)cn2)c1C(=O)Nc1ccc(OC2CCCN(CCF)C2)nc1 (centres unmarked) [Example 329, N-(6-{[1-(2-fluoroethyl)piperidin-3-yl]oxy}pyridin-3-yl)-3-methyl-5-{[5-(trifluoromethyl)pyrazin-2-yl]amino}-1,2-thiazole-4-carboxamide]
–	59 nM	> 20000 nM	Cc1nsc(Nc2cnc(C(F)(F)F)cn2)c1C(=O)Nc1ccc(O[C@H]2CCN(CC(F)F)C[C@@H]2F)nc1 [Example 362]
–	210 nM	≥ 20000 nM	Cc1nsc(Nc2cncc(C(F)(F)F)n2)c1C(=O)Nc1ccc(F)c(OC2CCN(CCC(F)(F)F)CC2)c1 [Example 343, N-(4-fluoro-3-{[1-(3,3,3-trifluoropropyl)piperidin-4-yl]oxy}phenyl)-3-methyl-5-{[6-(trifluoromethyl)pyrazin-2-yl]amino}-1,2-thiazole-4-carboxamide]
–	79 nM	≥ 20000 nM	Cc1nsc(Nc2cnc(C(F)(F)F)cn2)c1C(=O)Nc1ccc(F)c(OCC2CCCN(CCC(F)(F)F)C2)c1 (centres unmarked) [Example 338, N-(4-fluoro-3-{[1-(3,3,3-trifluoropropyl)piperidin-3-yl]methoxy}phenyl)-3-methyl-5-{[5-(trifluoromethyl)pyrazin-2-yl]amino}-1,2-thiazole-4-carboxamide]
–	50 nM	≥ 20000 nM	Cc1nsc(Nc2cnc(C(F)(F)F)cn2)c1C(=O)Nc1ccc(OCCN(C)CC(F)F)nc1 [Example 349, N-(6-{2-[(2,2-difluoroethyl)(methyl)amino]ethoxy}pyridin-3-yl)-3-methyl-5-{[5-(trifluoromethyl)pyrazin-2-yl]amino}-1,2-thiazole-4-carboxamide]
–	25 nM	≥ 20000 nM	Cc1nsc(Nc2cnc(C(F)(F)F)cn2)c1C(=O)Nc1ccc(OC2CCCN(CCC(F)(F)F)C2)nc1 (centres unmarked) [Example 332, 3-methyl-5-{[5-(trifluoromethyl)pyrazin-2-yl]amino}-N-(6-{[1-(3,3,3-trifluoropropyl)piperidin-3-yl]oxy}pyridin-3-yl)-1,2-thiazole-4-carboxamide]
–	96 nM	> 20000 nM	Cc1nsc(Nc2cnc(C(F)(F)F)cn2)c1C(=O)Nc1ccc(O[C@@H]2CCN(CC(F)F)C2)nc1 [Example 379, N-(6-{[(3R)-1-(2,2-difluoroethyl)pyrrolidin-3-yl]oxy}pyridin-3-yl)-3-methyl-5-{[5-(trifluoromethyl)pyrazin-2-yl]amino}-1,2-thiazole-4-carboxamide]
–	74 nM	≥ 20000 nM	Cc1nsc(Nc2cnc3ccccc3n2)c1C(=O)Nc1ccc(OC2CCCN(CC(F)F)C2)nc1 (centres unmarked) [Example 33, N-(6-{[1-(2,2-Difluoroethyl)piperidin-3-yl]oxy}pyridin-3-yl)-3-methyl-5-(quinoxalin-2-ylamino)-1,2-thiazole-4-carboxamide]
–	56 nM	≥ 20000 nM	Cc1nsc(Nc2cnc(C(F)(F)F)cn2)c1C(=O)Nc1ccc(F)c(OCC2CCCN(CC(F)F)C2)c1 (centres unmarked) [Example 334, N-(3-{[1-(2,2-difluoroethyl)piperidin-3-yl]methoxy}-4-fluorophenyl)-3-methyl-5-{[5-(trifluoromethyl)pyrazin-2-yl]amino}-1,2-thiazole-4-carboxamide]
–	200 nM	> 20000 nM	Cc1nsc(Nc2cnc(C(F)(F)F)cn2)c1C(=O)Nc1ccc(OC[C@@H]2CCCN(CC(F)F)C2)nc1 [Example 375, N-(6-{[(3R)-1-(2,2-difluoroethyl)piperidin-3-yl]methoxy}pyridin-3-yl)-3-methyl-5-{[5-(trifluoromethyl)pyrazin-2-yl]amino}-1,2-thiazole-4-carboxamide]
27 nM	35 nM	> 20000 nM	Cc1nsc(Nc2cnc(C(F)(F)F)cn2)c1C(=O)Nc1ccc(F)c(OC[C@@H]2CCCN(CCC(F)(F)F)C2)c1 [Example 395, N-(4-fluoro-3-{[(3R)-1-(3,3,3-trifluoropropyl)piperidin-3-yl]methoxy}phenyl)-3-methyl-5-{[5-(trifluoromethyl)pyrazin-2-yl]amino}-1,2-thiazole-4-carboxamide]
–	120 nM	> 20000 nM	Cc1nsc(Nc2cnc(C(F)(F)F)cn2)c1C(=O)Nc1ccc(N2CCN(CCC(F)(F)F)CC2)nc1 [Example 361, 3-methyl-5-{[5-(trifluoromethyl)pyrazin-2-yl]amino}-N-{6-[4-(3,3,3-trifluoropropyl)piperazin-1-yl]pyridin-3-yl}-1,2-thiazole-4-carboxamide]
